Assay results as given in US20070270393A1, “Methods and compositions for modulation of sleep cycle” (priority 2006, published 2007).
Values joined by “and” are separate entries in the source; they are usually repeats but may differ in a detail not shown here. Identical values can stand only once.

Tests used:
[1] = system: MR and GR; conditions: Reul and de Kloet 1985; cited from earlier work
[2] = system: nocturnal HPA axis activity in healthy controls; test: Two day repeated measures study of fludrocortisone's acute effects on nocturnal HPA axis activity; assay type: in vivo, human
Protocol: Nine healthy subjects were recruited from the community via flyers and internet postings. Subjects responding to ads were phone screened to determine if subjects met initial eligibility criteria. Those subjects meeting criteria underwent physical examination, screening labs (complete blood count, comprehensive metabolic panel, urine analysis, urine toxicology screen, TSH, FT4, serum pregnancy test) and EKG. A SCID was performed to rule out Axis I and Axis II DSM-TR pathology. At the time of this analysis and manuscript preparation, 9 subjects have been enrolled. Inclusion criteria were: (1) participants are age 18 to 85 years old with a HAM-D score less than or equal to 5. Exclusion criteria were: (1) personal history of Axis I or Axis II disorders; (2) active medical problems; (3) abuse of drugs or alcohol in the 6 months prior to study; (4) use of additional prescription medications, street drugs or alcohol during the week before the study; (5) currently pregnant or lactating.
This study is a two day repeated measures study of fludrocortisone's acute effects on nocturnal HPA axis activity in healthy controls. Blood samples were taken every 30 minutes, beginning at 1600 to 2400 on Days 1. At 1400 on Day 2, all subjects were given 0.5 mg of fludrocortisone. Blood was then resampled from 1600 to 2400 on Day 2 to assess nocturnal changes in HPA axis activity. Blood sampling was timed in the first half of the night to coincide with the time period of greatest activity of MR.
Group averages, standard deviation and effect sizes are reported. The primary end-points were chosen to be mean cortisol and ACTH from 1600 to 2400 when greatest mineralocorticoid receptor activity is expected. To determine the differential effects of fludrocortisone, data from all subjects are pooled and the average values from 1600 to 2400 are computed. Next, mean values across this time interval are computed before (Time 1) and after (Time 2) fludrocortisone and the effect size for the difference between pooled mean values is computed.

[3] = target: T1, glucocorticoid (GR) receptors (Homo sapiens, UniProt P04150); conditions: literature; cited from earlier work
T1 sequence (P04150 1-777): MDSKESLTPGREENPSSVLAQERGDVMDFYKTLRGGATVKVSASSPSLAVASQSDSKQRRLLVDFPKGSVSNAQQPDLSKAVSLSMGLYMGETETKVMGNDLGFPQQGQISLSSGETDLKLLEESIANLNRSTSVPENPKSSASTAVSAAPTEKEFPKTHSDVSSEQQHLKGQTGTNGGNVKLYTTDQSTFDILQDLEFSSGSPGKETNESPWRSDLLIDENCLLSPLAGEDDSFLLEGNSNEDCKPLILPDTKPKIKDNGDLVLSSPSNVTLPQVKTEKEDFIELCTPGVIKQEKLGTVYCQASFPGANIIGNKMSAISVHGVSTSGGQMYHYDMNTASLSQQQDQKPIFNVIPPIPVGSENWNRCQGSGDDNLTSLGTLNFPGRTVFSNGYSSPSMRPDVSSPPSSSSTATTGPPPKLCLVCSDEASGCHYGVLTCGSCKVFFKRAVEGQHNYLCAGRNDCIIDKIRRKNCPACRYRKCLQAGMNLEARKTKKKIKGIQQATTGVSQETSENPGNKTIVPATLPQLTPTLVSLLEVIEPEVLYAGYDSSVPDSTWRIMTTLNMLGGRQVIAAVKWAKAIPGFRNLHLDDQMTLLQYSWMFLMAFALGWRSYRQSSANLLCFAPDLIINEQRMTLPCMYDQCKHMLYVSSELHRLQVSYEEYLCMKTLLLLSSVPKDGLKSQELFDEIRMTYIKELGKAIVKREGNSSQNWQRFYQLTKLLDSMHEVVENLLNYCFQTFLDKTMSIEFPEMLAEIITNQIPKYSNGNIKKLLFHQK

[4] = 0.5 mg fludrocortisone, treatment vs baseline

C[C@]12CCC(=O)C=C1CC[C@@H]1[C@@H]2[C@@H](O)C[C@@]2(C)[C@H]1CC[C@]2(O)C(=O)CO [cortisol]
affinity for MR relative to GR [1]: greater affinity for MR than GR

C[C@]12CCC(=O)C=C1CC[C@H]1[C@@H]3CC[C@](O)(C(=O)CO)[C@@]3(C)C[C@H](O)[C@@]12F [fludrocortisone]
Mean ACTH (1600 to 2400), Difference (Tx − Baseline) ([2]; 0.5 mg fludrocortisone at 1400 on Day 2): 5.76 pg/mL | Mean Cortisol (1600 to 2400), Difference (Tx − Baseline) ([2]; 0.5 mg fludrocortisone at 1400 on Day 2, 9 healthy subjects): 2.19 µg/dL | Mean Cortisol/ACTH (1600 to 2400), Difference (Tx − Baseline) ([2]; 0.5 mg fludrocortisone, post-hoc analysis): 0.0686 and 0.07 | Mean ACTH (1600 to 2400), Effect Size [2, 4]: 4.46 | Mean Cortisol (1600 to 2400), Effect Size [2, 4]: 1.65 | Mean Cortisol/ACTH (1600 to 2400), Effect Size [2, 4]: 0.92 | Mean ACTH (1600 to 2400), AUC Treatment ([2]; after 0.5 mg fludrocortisone): 13.2 pm/ml | Mean Cortisol (1600 to 2400), AUC Treatment ([2]; after 0.5 mg fludrocortisone): 1.77 µg/dL

CC#C[C@]1(O)CC[C@H]2[C@@H]3CCC4=CC(=O)CCC4=C3[C@@H](c3ccc(OCCN(C)C)cc3)C[C@@]21C [RU009, 11-beta-(4-dimethyl-aminoethoxyphenyl)-17-alpha-(propynyl-17beta-hydroxy-4,9-estradien-3-one)]
antagonist of glucocorticoid (GR) receptors [3]: GR antagonist effects
